Measured values as given in article PMC12050906 (Drug Development Research, 2025).

Experiments:
[1] = biological target: 12-lipoxygenase (12-LO) (Homo sapiens, UniProt P18054); experiment: 12-HETE biosynthesis; type: cell-based
[2] = biological target: T1, 5-lipoxygenase (5-LO) (Homo sapiens, UniProt P09917); experiment: 5-LO product biosynthesis; type: cell-based
T1 sequence (P09917 1-674): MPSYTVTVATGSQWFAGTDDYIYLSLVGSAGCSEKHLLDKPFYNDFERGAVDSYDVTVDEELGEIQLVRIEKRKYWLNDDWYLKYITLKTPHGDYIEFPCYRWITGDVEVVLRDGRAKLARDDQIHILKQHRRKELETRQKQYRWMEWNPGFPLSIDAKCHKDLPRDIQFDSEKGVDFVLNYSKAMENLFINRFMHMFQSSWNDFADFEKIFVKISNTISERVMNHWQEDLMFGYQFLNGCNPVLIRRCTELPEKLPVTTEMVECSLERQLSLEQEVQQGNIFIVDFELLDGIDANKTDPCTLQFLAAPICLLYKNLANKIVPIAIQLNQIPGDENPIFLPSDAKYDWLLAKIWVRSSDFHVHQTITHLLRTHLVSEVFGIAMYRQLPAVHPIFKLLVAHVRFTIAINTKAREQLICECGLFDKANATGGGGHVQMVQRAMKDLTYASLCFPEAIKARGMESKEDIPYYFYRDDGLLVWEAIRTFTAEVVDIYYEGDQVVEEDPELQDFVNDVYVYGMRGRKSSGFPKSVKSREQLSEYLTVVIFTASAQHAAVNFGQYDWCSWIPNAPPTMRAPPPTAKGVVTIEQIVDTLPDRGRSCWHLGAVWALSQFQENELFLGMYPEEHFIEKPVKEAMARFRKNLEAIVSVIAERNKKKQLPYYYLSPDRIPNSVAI
T1 sequence (P20292 1-161 partner): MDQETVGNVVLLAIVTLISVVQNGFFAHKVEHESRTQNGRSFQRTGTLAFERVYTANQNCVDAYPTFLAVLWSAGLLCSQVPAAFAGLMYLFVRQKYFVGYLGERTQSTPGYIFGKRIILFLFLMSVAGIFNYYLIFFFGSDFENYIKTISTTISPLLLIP

12-lipoxygenase (12-LO), sequence (P18054 whole entry): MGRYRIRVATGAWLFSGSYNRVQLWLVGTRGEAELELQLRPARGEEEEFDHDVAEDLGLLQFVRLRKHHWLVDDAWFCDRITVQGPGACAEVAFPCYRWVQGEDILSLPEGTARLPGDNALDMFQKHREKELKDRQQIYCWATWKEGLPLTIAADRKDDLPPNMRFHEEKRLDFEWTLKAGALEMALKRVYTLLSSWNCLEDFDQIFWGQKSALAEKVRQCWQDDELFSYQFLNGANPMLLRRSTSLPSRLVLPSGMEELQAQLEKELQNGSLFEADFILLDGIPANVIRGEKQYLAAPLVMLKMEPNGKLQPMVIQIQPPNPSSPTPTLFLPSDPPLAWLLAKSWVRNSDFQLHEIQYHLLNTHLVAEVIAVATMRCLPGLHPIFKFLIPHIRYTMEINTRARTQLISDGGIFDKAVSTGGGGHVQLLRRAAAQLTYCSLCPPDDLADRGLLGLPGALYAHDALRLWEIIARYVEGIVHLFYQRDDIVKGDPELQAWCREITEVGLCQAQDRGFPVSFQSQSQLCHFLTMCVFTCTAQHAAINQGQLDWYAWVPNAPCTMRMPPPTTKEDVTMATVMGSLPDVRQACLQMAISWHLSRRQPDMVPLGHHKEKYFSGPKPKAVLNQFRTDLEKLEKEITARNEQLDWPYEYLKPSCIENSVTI

- % remaining at 1 μM [1]: 74.3
- IC50 [2]: 1 µM
SMILES: O=C(/C=C/c1ccc(O)c(O)c1)OCCc1ccccc1 [compound 1, Caffeic acid phenethyl ester]
